Test results published in ChEMBL document CHEMBL1150412, “1,5-Diphenylpyrrole derivatives as antimycobacterial agents. Probing the influence on antimycobacterial activity of lipophilic substituents at the phenyl rings” (J Med Chem, 2008).
≈ marks a conversion by molar mass, not a printed value.

Legend:
Mycobacterium marinum = experiment: Antimycobacterial activity against Mycobacterium marinum CIP 6423; format: functional
[1] = system: Mycolicibacterium smegmatis; experiment: Antimycobacterial activity against Mycobacterium smegmatis CIP 103599; format: functional
Vero = experiment: Cytotoxicity against african green monkey Vero cells after 5 days; format: cell-based; conditions: chlorocebus sabaeus, 120 h
Mycobacterium avium = experiment: Antimycobacterial activity against Mycobacterium avium CIP 103317; format: functional
[2] = system: Mycobacterium tuberculosis; experiment: Antimycobacterial activity against Mycobacterium tuberculosis 103471; format: functional
[3] = system: Mycobacterium tuberculosis; experiment: Antimycobacterial activity against Mycobacterium tuberculosis H37Rv; format: functional
[4] = Protection index, ratio of MNTD50 for african green monkey Vero cells to MIC for Mycobacterium tuberculosis 103471; format: functional
[5] = system: Mycobacterium tuberculosis; experiment: Antimycobacterial activity against Mycobacterium tuberculosis H37Rv in […] cells assessed as reduction in number of surviving bacteria at 1 ug/mL relative to control; format: functional
[6] = system: Mycobacterium tuberculosis; experiment: Antimycobacterial activity against Mycobacterium tuberculosis clinical isolates by agar dilution method; format: functional
[7] = system: Mycobacterium tuberculosis; experiment: Antimycobacterial activity against Mycobacterium tuberculosis H37Rv in […] cells assessed as reduction in number of surviving bacteria at 0.5 ug/mL relative to control; format: functional
[8] = system: Mycobacterium tuberculosis; experiment: Antimycobacterial activity against Mycobacterium tuberculosis H37Rv in […] cells assessed as reduction in number of surviving bacteria at 0.25 ug/mL relative to control; format: functional

Row | Structure (SMILES) | MIC (Mycobacterium marinum) [µg/mL] | MIC [1] [µg/mL] | MNTD50 (Vero) [µg/mL] | MIC (Mycobacterium avium) [µg/mL] | MIC [2] [µg/mL] | MIC [3] [µg/mL] | Ratio [4] | Activity [5] [%] | MIC50 [6] [µg/mL] | MIC90 [6] [µg/mL] | Activity [7] [%] | Activity [8] [%] | MIC [6] [µg/mL]
1 | CCc1ccc(-c2cc(CN3CCSCC3)c(C)n2-c2ccc(Cl)cc2)cc1 | 8 (≈ 19.5 µM) | 8 (≈ 19.5 µM) | 16 | 16 (≈ 38.9 µM) | 0.25 (≈ 0.608 µM) | 0.25 (≈ 0.608 µM) | 64 | – | – | – | – | – | –
2 | CCCc1ccc(-c2cc(CN3CCSCC3)c(C)n2-c2ccc(Cl)cc2)cc1 | 4 (≈ 9.41 µM) | > 16 | 16 | 4 (≈ 9.41 µM) | 0.25 (≈ 0.588 µM) | 0.125 (≈ 0.294 µM) | 64 | – | – | – | – | – | –
3 | [H]/N=C(/N)N[C@H]1[C@H](O)[C@@H](O)[C@H](O[C@@H]2O[C@@H](C)[C@](O)(C=O)[C@H]2O[C@@H]2O[C@@H](CO)[C@H](O)[C@@H](O)[C@@H]2NC)[C@@H](N/C(N)=N\[H])[C@@H]1O (stereo in doubt) [STREPTOMYCIN] | 32 (≈ 55 µM) | 8 (≈ 13.8 µM) | > 64 | 8 (≈ 13.8 µM) | 0.5 (≈ 0.86 µM) | 4 (≈ 6.88 µM) | >128 | – | – | – | – | – | –
4 | CCCc1ccc(-n2c(-c3ccc(Cl)cc3)cc(CN3CCSCC3)c2C)cc1 | 16 (≈ 37.6 µM) | > 16 | 32 | 16 (≈ 37.6 µM) | 0.25 (≈ 0.588 µM) | 0.25 (≈ 0.588 µM) | 128 | 98.79 | 0.5 (≈ 1.18 µM) | 1 (≈ 2.35 µM) | 85.79 | 21.05 | –
5 | Cc1ccc(-c2cc(CN3CCSCC3)c(C)n2-c2ccc(F)cc2)cc1 | 8 (≈ 21 µM) | 16 (≈ 42 µM) | 64 | 8 (≈ 21 µM) | 0.25 (≈ 0.657 µM) | 0.125 (≈ 0.328 µM) | 256 | – | – | – | – | – | –
6 | Cc1c(CN2CCSCC2)cc(-c2ccc(Cl)cc2)n1-c1ccc(C(C)C)cc1 | 16 (≈ 37.6 µM) | > 16 | 32 | 16 (≈ 37.6 µM) | 0.25 (≈ 0.588 µM) | 0.25 (≈ 0.588 µM) | 128 | 98.74 | 0.25 (≈ 0.588 µM) | 0.5 (≈ 1.18 µM) | 84.21 | 47.37 | 0.25 (≈ 0.588 µM)
7 | Cc1c(CN2CCSCC2)cc(-c2ccc(C(C)C)cc2)n1-c1ccc(Cl)cc1 | 4 (≈ 9.41 µM) | 8 (≈ 18.8 µM) | 8 | 8 (≈ 18.8 µM) | 0.125 (≈ 0.294 µM) | 0.125 (≈ 0.294 µM) | 64 | – | – | – | – | – | –
8 | CCCc1ccc(-c2cc(CN3CCSCC3)c(C)n2-c2ccc(F)cc2)cc1 | > 16 | > 16 | 4 | > 16 | 2 (≈ 4.89 µM) | – | 2 | – | – | – | – | – | –
9 | Cc1c(CN2CCN(C)CC2)cc(-c2ccc(Cl)cc2)n1-c1ccc(Cl)cc1 | 100 (≈ 241 µM) | 25 (≈ 60.3 µM) | 4 | 0.5 (≈ 1.21 µM) | 1 (≈ 2.41 µM) | 2 (≈ 4.83 µM) | 4 | – | – | – | – | – | –
10 | CCc1ccc(-n2c(-c3ccc(Cl)cc3)cc(CN3CCSCC3)c2C)cc1 | 4 (≈ 9.73 µM) | 8 (≈ 19.5 µM) | 16 | 16 (≈ 38.9 µM) | 0.5 (≈ 1.22 µM) | 0.5 (≈ 1.22 µM) | 32 | – | – | – | – | – | –
11 | CO[C@H]1/C=C/O[C@@]2(C)Oc3c(C)c(O)c4c(O)c(c(/C=N/N5CCN(C)CC5)c(O)c4c3C2=O)NC(=O)/C(C)=C\C=C\[C@H](C)[C@H](O)[C@@H](C)[C@@H](O)[C@@H](C)[C@H](OC(C)=O)[C@@H]1C [RIFAMPIN] | 0.5 (≈ 0.608 µM) | 32 (≈ 38.9 µM) | 64 | 0.25 (≈ 0.304 µM) | 0.25 (≈ 0.304 µM) | 0.25 (≈ 0.304 µM) | 256 | 99.79 | – | – | 98.42 | 95.79 | –
12 | CCc1ccc(-c2cc(CN3CCSCC3)c(C)n2-c2ccc(F)cc2)cc1 | > 16 | > 16 | 16 | > 16 | 1 (≈ 2.53 µM) | – | 16 | – | – | – | – | – | –
13 | CCCc1ccc(-n2c(-c3ccc(F)cc3)cc(CN3CCSCC3)c2C)cc1 | 16 (≈ 39.2 µM) | 4 (≈ 9.79 µM) | 4 | > 16 | 1 (≈ 2.45 µM) | – | 4 | – | – | – | – | – | –
14 | Cc1ccc(-c2cc(CN3CCSCC3)c(C)n2-c2ccc(Cl)cc2)cc1 | > 16 | > 16 | 64 | 16 (≈ 40.3 µM) | 0.5 (≈ 1.26 µM) | 0.5 (≈ 1.26 µM) | 128 | – | – | – | – | – | –
15 | Cc1c(CN2CCSCC2)cc(-c2ccc(C(C)C)cc2)n1-c1ccc(F)cc1 | 8 (≈ 19.6 µM) | > 16 | 32 | 4 (≈ 9.79 µM) | 0.25 (≈ 0.612 µM) | 0.25 (≈ 0.612 µM) | 128 | – | 0.5 (≈ 1.22 µM) | 0.5 (≈ 1.22 µM) | – | – | –
16 | Cc1ccc(-n2c(-c3ccc(Cl)cc3)cc(CN3CCSCC3)c2C)cc1 | 16 (≈ 40.3 µM) | 16 (≈ 40.3 µM) | 16 | > 16 | 0.5 (≈ 1.26 µM) | 0.5 (≈ 1.26 µM) | 32 | – | – | – | – | – | –
17 | CCc1ccc(-n2c(-c3ccc(F)cc3)cc(CN3CCSCC3)c2C)cc1 | > 16 | 2 (≈ 5.07 µM) | 2 | > 16 | 2 (≈ 5.07 µM) | – | 1 | – | – | – | – | – | –
18 | NNC(=O)c1ccncc1 [ISONIAZID] | 16 (≈ 117 µM) | 64 (≈ 467 µM) | 32 | 32 (≈ 233 µM) | 0.125 (≈ 0.911 µM) | 0.25 (≈ 1.82 µM) | 128 | – | 0.125 (≈ 0.911 µM) | 0.25 (≈ 1.82 µM) | – | – | 0.125 (≈ 0.911 µM)
19 | Cc1c(CN2CCSCC2)cc(-c2ccc(F)cc2)n1-c1ccc(C(C)C)cc1 | > 16 | 8 (≈ 19.6 µM) | 8 | > 16 | 16 (≈ 39.2 µM) | – | 0.5 | – | – | – | – | – | –
